Experimental data: paper PMC6792352, “Limited Chemical Structural Diversity Found to Modulate Thyroid Hormone Receptor in the Tox21 Chemical Library” (Environmental Health Perspectives, 2019)
Structures can show the parent of a compound that is named as a salt.

Test: in vitro
Conditions: rat, gh3-tre-luc cells

SMILES	CC50 at 24 h (AC50 (uM) modified / 1000) [µM]	other results
N#CC(C#N)=NNc1cccc(Cl)c1 [Carbonyl cyanide chlorophenylhydrazone]	1.97	
CCN(Cc1cccc(S(=O)(=O)O)c1)c1ccc(C(=C2C=CC(=[N+](CC)Cc3cccc(S(=O)(=O)O)c3)C=C2)c2ccc(O)cc2S(=O)(=O)[O-])cc1 [FD&C Green No. 3]	41.3	
NC(=S)NC(N)=S [2,4-Dithiobiuret]	> 90	
O=C(Nc1ccccc1)c1cc(Cl)ccc1O [5-Chlorosalicylanilide]	7.85	
CCCCCCCCCCCCCC=O [Tetradecanal]	> 5	
COC(=O)CCCCC(=O)O [Methyl hexanedioate]	> 90	
CCN1CCC[C@H]1CNC(=O)c1c(O)c(Cl)cc(Cl)c1OC [Raclopride]	> 50	
Nc1c(Cl)c(Cl)nc(C(=O)O)c1Cl [Picloram]	> 100	
CCOP(=O)(N=C1SCCS1)OCC [Phosfolan]		CC50 at 24 h (AC50 (uM) modified / 1000, Tox21_110001=Tox21_301905, viability, 1 nM T3 present, 24 h): > 90 µM
CC(O)COC(C)COC(C)CO (stereo not drawn) [Tripropylene glycol]	> 90	
CCN(CC)CCOC(=O)C(c1ccccc1)C1CCCCC1 (stereo not drawn) [Drofenine hydrochloride]	21.1	
CC(=O)OC(C)OC(=O)C(C)c1ccc(-c2ccccc2)c(F)c1 (stereo not drawn) [Flurbiprofen axetil]	> 50	
CSc1nc(NC(C)C)nc(NC(C)C)n1 [Prometryn]	> 90	
COP(=S)(OC)Oc1ccc([N+](=O)[O-])c(C)c1 [Fenitrothion]	> 90	
CCC(C)Cl (stereo not drawn) [2-Chlorobutane]		CC50 at 24 h (AC50 (uM) modified / 1000, Tox21_110001=Tox21_200404, viability, 1 nM T3 present, 24 h): > 90 µM
COC(=O)[C@H]1[C@H]2C[C@H]3c4[nH]c5ccccc5c4CCN3C[C@H]2CC[C@@H]1O [Rauwolscine]	> 50	
CCC(=O)OCC(=O)[C@@]1(OC(=O)CC)[C@@H](C)C[C@H]2[C@@H]3CCC4=CC(=O)C=C[C@]4(C)[C@@]3(F)[C@@H](O)C[C@@]21C [Betamethasone dipropionate]	> 50	
Cc1nc2cc(Cl)ccc2[nH]1 [5-Chloro-2-methyl-1H-benzimidazole]	> 90	
CCOC(=O)C(C)OC(=O)c1cc(Oc2ccc(C(F)(F)F)cc2Cl)ccc1[N+](=O)[O-] (stereo not drawn) [Lactofen]	> 90	
CCCOCC(C)OCC(C)O (stereo not drawn) [Butyl dipropasol solvent]	> 90	
CCOc1ccc([N+](=O)[O-])cc1 [1-Ethoxy-4-nitrobenzene]	39.1	
CC(=C(CCO)SSCC1CCCO1)N(C=O)Cc1cnc(C)nc1N (stereo in doubt) [Fursultiamine hydrochloride]	> 50	
Cc1ccc(OC(=O)CC(C)C)cc1 [4-Methylphenyl 3-methylbutanoate]	> 90	
CCC1(CC)C(=O)NC(=O)N(C)C1=O [Metharbital]		CC50 at 24 h (AC50 (uM) modified / 1000, Tox21_110001=Tox21_112752, viability, 1 nM T3 present, 24 h): > 50 µM
O=C1c2ccccc2C(=O)C1c1ccccc1 [Phenindione]	> 20	

SMILES	CC50 at 24 h (AC50 (uM) modified / 1000) [µM]	other results
Oc1ccccc1-c1ccccc1 [2-Phenylphenol]		CC50 at 24 h (AC50 (uM) modified / 1000, Tox21_110001=Tox21_202415, viability, 1 nM T3 present, 24 h): > 90 µM
COC(=O)[C@@H]1CC2=CC(=O)CC[C@]2(C)[C@@]23O[C@@H]2C[C@@]2(C)[C@@H](CC[C@@]24CCC(=O)O4)[C@H]13 [Eplerenone]	> 50	
CC(N)CN (stereo not drawn) [1,2-Diaminopropane]	> 100	
C=CCCC(=O)O [4-Pentenoic acid]	> 90	
CCC(=O)NCC[C@@H]1CCc2ccc3c(c21)CCO3 [Ramelteon]	> 50	
CC(C)COC(=O)c1ccc(O)cc1 [Isobutylparaben]	> 90	
CCN(C(C)=O)c1cccc(-c2ccnc3c(C#N)cnn23)c1 [Zaleplon]		CC50 at 24 h (AC50 (uM) modified / 1000, Tox21_110001=Tox21_111872, viability, 1 nM T3 present, 24 h): > 50 µM
COC(=O)CS [Methyl thioglycolate]	> 90	
CC(=O)Nc1nnc(S(N)(=O)=O)s1 [Acetazolamide]	> 90	
O=S1OCC2C(CO1)C1(Cl)C(Cl)=C(Cl)C2(Cl)C1(Cl)Cl (stereo not drawn) [Endosulfan]		CC50 at 24 h (AC50 (uM) modified / 1000, Tox21_110001=Tox21_202365, viability, 1 nM T3 present, 24 h): 55.9 µM; CC50 at 24 h (AC50 (uM) modified / 1000, Tox21_110001=Tox21_300657, viability, 1 nM T3 present, 24 h): 37.5 µM
ICCc1ccccc1 [2-Iodoethylbenzene]	> 90	
CCCCNS(=O)(=O)c1ccccc1 [N-Butylbenzenesulfonamide]	> 90	
c1cnc(N2CCN(Cc3ccc4c(c3)OCO4)CC2)nc1 [Piribedil]	> 50	
CC(O)C(=O)O (stereo not drawn) [Calcium lactate]	> 90	
O=C1CCCCCN1SSN1CCCCCC1=O [1,1'-Disulfanediyldiazepan-2-one]	53.9	
CC(C)CCCC(C)(C)O [2,6-Dimethyl-2-heptanol]	> 90	
CN(C1CCCCC1)S(=O)(=O)c1ccccc1N [2-Amino-N-cyclohexyl-N-methylbenzenesulfonamide]	> 90	
CCCCCCCCO[C@@H]1O[C@H](CO)[C@@H](O)[C@H](O)[C@H]1O [Octyl beta-D-glucopyranoside]	> 90	
CCc1ccc2c(c1)C(=O)c1ccccc1C2=O [2-Ethylanthraquinone]	> 90	
CC(C)(c1cc(Br)c(OCC(Br)CBr)c(Br)c1)c1cc(Br)c(OCC(Br)CBr)c(Br)c1 (stereo not drawn) [Tetrabromobisphenol A-bis(2,3-dibromopropyl ether)]	> 50	
Cn1c(=O)c2c(ncn2CC2OCCO2)n(C)c1=O [Doxofylline]	> 50	
O=C[C@H](O)[C@@H](O)[C@H](O[C@H]1O[C@H](CO)[C@@H](O[C@H]2O[C@H](CO)[C@@H](O)[C@H](O)[C@H]2O)[C@H](O)[C@H]1O)[C@H](O)CO [Maltotriose]	> 50	
O=C(O)CNc1ccccc1 [Potassium anilinoacetate]	> 90	
C=C[C@H]1C[N@@]2CC[C@H]1C[C@@H]2[C@@H](O)c1ccnc2ccc(OC)cc12 [Quinidine]	85.2	
Cc1ccc(Br)cc1 [4-Bromotoluene]	> 90	

SMILES	CC50 at 24 h (AC50 (uM) modified / 1000) [µM]	other results
Nc1cc([N+](=O)[O-])ccc1C(=O)O [4-Nitroanthranilic acid]	> 90	
c1ccc2c(c1)Sc1ccccc1N2CCN1CCCC1 [Pyrathiazine]	19.5	
CCCCCCCCCC(=O)OC [Methyl decanoate]	> 90	
Cc1cccc(C(C)c2cnc[nH]2)c1C (stereo not drawn) [Medetomidine hydrochloride]	> 50	
CCN(CC)CCOC(=O)c1cccnc1 [Nicametate citrate]	> 50	
CCCCCCCCCCCCCCCC[N+](C)(C)CCN(Cc1ccc(OC)cc1)c1ncccn1 [Thonzonium bromide]	14.6	
CCc1c(C)[nH]c2c1C(=O)C(CN1CCOCC1)CC2 (stereo not drawn) [Molindone hydrochloride]	> 20	
CS(=O)(=O)c1ccc([C@@H](O)[C@@H](CF)NC(=O)C(Cl)Cl)cc1 [Florfenicol]	> 20	
OCCCCC(O)CO (stereo not drawn) [1,2,6-Hexanetriol]	> 90	
CCCCCCCCCCCC(=O)NCCCN(C)C [N-[3-(Dimethylamino)propyl]dodecanamide]	18	
CC(C)(C)c1ccc(OCC2CO2)cc1 (stereo not drawn) [tert-Butyl phenyl glycidyl ether]	> 90	
Nc1ccn([C@@H]2CO[C@H](CO)O2)c(=O)n1 [Troxacitabine]	> 50	
CNC(=O)NC(O)C(Cl)(Cl)Cl (stereo not drawn) [Mecloralurea]		CC50 at 24 h (AC50 (uM) modified / 1000, Tox21_110001=Tox21_112123, viability, 1 nM T3 present, 24 h): > 50 µM
O=S(=O)(O)CCO [Sodium 2-hydroxyethanesulfonate]	> 90	
Cc1nc(-c2ccc(Cl)cc2)oc1COC(C)(C)C(=O)O [Romazarit]	> 50	
O=C(CCc1ccc(O)cc1)c1c(O)cc(O)cc1O [Phloretin]	61.2	
O=C(c1ccc(O)c(O)c1)c1ccc(O)cc1O [2,3',4,4'-Tetrahydroxybenzophenone]	49.5	
CN1CCC(=C2c3ccccc3CCc3cccnc32)CC1 [Azatadine]	47.7	
O[C@@H](c1cc(C(F)(F)F)nc2c(C(F)(F)F)cccc12)[C@H]1CCCCN1 [Mefloquine hydrochloride]	5.17	
Cc1ccc2ccccc2c1[N+](=O)[O-] [1-Nitro-2-methylnaphthalene]	> 90	
C[C@]12CC[C@H]3[C@@H](CCC4=CC(=O)CC[C@@H]43)[C@@H]1CC[C@@H]2OC(=O)CCc1ccccc1 [Nandrolone phenpropionate]	> 50	
CCOC(=O)c1cccc(N)c1 [Ethyl 3-aminobenzoate methanesulfonic acid salt]	> 50	
CCN1CCOCC1 [N-Ethylmorpholine]	> 90	
COC(=O)c1c(Cl)c(Cl)c(C(=O)OC)c(Cl)c1Cl [Chlorthal-dimethyl]	> 90	
